Each structure is given as a SMILES string.

The nature of data set [1]: Ocular toxicity in monkey at 10 ug/ml. Details: species or system Macaca mulatta. Conditions: rhesus monkey, in vivo; dose 10 µg/ml.
The target of a further data set is T1, Toll-like receptor 7 (Macaca fascicularis, UniProt B3Y652).
T1 sequence (B3Y652 whole entry): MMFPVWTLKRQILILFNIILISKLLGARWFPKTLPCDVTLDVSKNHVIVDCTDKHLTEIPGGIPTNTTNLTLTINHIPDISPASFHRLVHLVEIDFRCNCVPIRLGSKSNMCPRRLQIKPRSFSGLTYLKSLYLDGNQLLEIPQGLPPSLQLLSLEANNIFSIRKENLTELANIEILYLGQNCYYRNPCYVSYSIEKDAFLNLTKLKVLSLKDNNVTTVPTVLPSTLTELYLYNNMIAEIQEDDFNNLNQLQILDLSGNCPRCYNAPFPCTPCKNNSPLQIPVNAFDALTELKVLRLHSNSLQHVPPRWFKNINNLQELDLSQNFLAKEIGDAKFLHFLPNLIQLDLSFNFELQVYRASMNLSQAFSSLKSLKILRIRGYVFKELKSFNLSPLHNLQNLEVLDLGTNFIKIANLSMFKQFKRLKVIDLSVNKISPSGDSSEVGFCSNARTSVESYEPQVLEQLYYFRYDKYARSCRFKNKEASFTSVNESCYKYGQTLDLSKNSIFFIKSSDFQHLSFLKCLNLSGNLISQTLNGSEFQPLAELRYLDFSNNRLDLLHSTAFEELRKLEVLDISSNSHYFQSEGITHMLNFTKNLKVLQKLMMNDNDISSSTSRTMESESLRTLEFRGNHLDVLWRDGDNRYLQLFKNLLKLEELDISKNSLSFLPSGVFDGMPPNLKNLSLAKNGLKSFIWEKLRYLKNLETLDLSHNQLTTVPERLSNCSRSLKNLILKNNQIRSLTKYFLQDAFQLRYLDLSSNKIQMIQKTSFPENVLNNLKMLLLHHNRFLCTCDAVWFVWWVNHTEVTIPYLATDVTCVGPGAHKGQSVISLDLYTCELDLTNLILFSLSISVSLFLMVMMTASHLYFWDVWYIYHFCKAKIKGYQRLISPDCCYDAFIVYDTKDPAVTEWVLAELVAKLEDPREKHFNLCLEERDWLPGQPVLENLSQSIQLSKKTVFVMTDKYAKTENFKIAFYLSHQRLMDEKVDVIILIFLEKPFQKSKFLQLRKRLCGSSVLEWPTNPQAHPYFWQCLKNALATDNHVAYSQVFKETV
Description: Agonist activity at TLR7 in cynomolgus monkey whole blood assessed as induction of TNFalpha production. In kind it is tissue-based.

Another data set has as its target T2, Toll-like receptor 8 (Homo sapiens, UniProt Q9NR97).
T2 sequence (Q9NR97 whole entry): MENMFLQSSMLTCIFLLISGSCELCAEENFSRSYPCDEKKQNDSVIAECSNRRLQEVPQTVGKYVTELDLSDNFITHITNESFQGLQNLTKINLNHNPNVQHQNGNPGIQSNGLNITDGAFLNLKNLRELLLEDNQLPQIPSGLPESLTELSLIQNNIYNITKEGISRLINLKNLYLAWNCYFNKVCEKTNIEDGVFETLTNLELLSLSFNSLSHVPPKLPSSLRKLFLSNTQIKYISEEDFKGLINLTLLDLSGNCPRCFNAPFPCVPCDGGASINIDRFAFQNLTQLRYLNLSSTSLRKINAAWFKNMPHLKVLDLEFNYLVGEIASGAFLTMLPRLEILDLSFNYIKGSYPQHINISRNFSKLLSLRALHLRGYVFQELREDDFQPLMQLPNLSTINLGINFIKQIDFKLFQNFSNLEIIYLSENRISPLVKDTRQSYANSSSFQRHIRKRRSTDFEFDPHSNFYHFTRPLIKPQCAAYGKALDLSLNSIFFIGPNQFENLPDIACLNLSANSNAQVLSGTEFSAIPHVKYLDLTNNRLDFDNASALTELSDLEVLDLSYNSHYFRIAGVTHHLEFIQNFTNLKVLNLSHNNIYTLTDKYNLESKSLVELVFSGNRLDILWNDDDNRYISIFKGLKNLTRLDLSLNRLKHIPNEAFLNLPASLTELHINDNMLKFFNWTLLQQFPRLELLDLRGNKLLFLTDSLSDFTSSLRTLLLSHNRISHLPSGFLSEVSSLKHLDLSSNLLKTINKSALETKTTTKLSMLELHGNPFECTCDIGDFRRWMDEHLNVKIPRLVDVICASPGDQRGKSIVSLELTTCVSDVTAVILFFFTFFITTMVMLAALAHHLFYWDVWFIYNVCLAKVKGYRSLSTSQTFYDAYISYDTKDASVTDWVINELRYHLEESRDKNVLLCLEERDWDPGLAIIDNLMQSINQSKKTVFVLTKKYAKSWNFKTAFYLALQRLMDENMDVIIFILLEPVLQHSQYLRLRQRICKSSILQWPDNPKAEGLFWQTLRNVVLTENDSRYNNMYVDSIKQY
Description: Agonist activity at TLR8 (unknown origin) expressed in human U2OS cells by luciferase reporter assay. In kind it is cell-based.

Data set [2] concerns the target T3, Toll-like receptor 7 (Macaca fascicularis) (UniProt B3Y652).
T3 sequence (whole entry): T1 sequence (B3Y652 whole entry)
Put plainly: In vivo target occupancy at TLR7 in cynomolgus monkey assessed as fold increase in OAS3 mRNA expression in nasal scrape at 3 ng/kg administered intranasally incubated for 24 hrs by TaqMan analysis (reference value: 0.9). In kind it is functional.

As for `CCC[C@H](C)Oc1nc(N)c2[nH]c(=O)n(CCCCCN3CCCCC3)c2n1` [GSK-2245035], the Activity entry in data set [1] is recorded as “Non-Toxic”. For the same compound, the EC50 was 15.8 µM on Toll-like receptor 7 and 20 µM on Toll-like receptor 8. The fold change (FC) in data set [2] was 86.3.

These data come from ChEMBL document CHEMBL5252515, “Discovery of 6-Amino-2-{[(1S)-1-methylbutyl]oxy}-9-[5-(1-piperidinyl)pentyl]-7,9-dihydro-8H-purin-8-one (GSK2245035), a Highly Potent and Selective Intranasal Toll-Like Receptor 7 Agonist for the Treatment of Asthma” (J Med Chem, 2016).
